Key:
[1] = target: PTPβ (Homo sapiens, UniProt P23467); experiment: pNPP hydrolysis enzyme assay, PTPβ; format: biochemical
Protocol: (§1) Enzyme kinetic assay. PTP activity was assayed using p-nitrophenyl phosphate (pNPP) as a substrate in 3,3-dimethylglutarate buffer (50 mM 3,3-dimethylglutarate, pH 7.0, 1 mM EDTA, 150 mM NaCl, 2 mM DTT, 0.1 mg/mL BSA) at 25° C. The assays were performed in 96-well plates. Normally, to determine the IC50 values, the reaction was initiated by the addition of enzyme (final concentration at 10 nM) to a reaction mixture (0.2 mL) containing 2 mM (Km for the substrate) pNPP with various concentrations of inhibitors. The reaction rate was measured using a SpectraMax Plus 384 Microplate Spectrophotometer (Molecular Devices). To determine the mode of inhibition, the reactions were initiated by the addition of PTP-MEG2 to the reaction mixtures (0.2 mL) containing various concentrations of pNPP with different concentrations of the inhibitor 7. Data were fitted using SigmaPlot Enzyme Kinetics Module (Systat Software, Inc.).

[2] = test system: insulin signaling in mouse primary hepatocytes; experiment: Insulin signaling in mouse primary hepatocytes (Western blot); format: cell-based; conditions: for increase of phosphorylated IR (Tyr1162/1163): 1 hour pretreatment, 5 nM insulin 5 minutes, vs DMSO
Protocol: FIGS. 4A-B depict the ability of PTP-MEG2 inhibitor Compound 7 to sensitize insulin signaling in primary hepatocytes. […] Mouse primary hepatocytes were cultured in 0.5% FBS DMEM medium overnight. Prior to insulin stimulation, the cells were pretreated with Compound 7 or 8 for 1 hour. Then the cells were stimulated with 5 nM insulin for 5 minutes. Insulin signaling was analyzed by Western Blots using phospho-specific antibodies. […] Mouse primary hepatocytes were cultured in DMEM medium plus 0.5% FBS for overnight in the presence or absence of insulin or Compound 7 or 8. Then the cells were harvested for mRNA isolation and gene expression analysis using real-time PCR. The mRNA levels of Foxo1 target genes were normalized with Ppia as an internal control. Data are presented as mean±SEM. *, P<0.05 for Compound 7 vs. DMSO; #, P<0.05 for INS+Compound 7 vs. INS alone.
FIG. 10 depicts the time course of pIR (Tyr 1162/63) level. Primary hepatocyte cells were starved overnight. Prior to insulin stimulation, the cells were preincubated with either vehicle DMSO, Compound 7, or Compound 8 for 1 hour. Then the cells were stimulated with 5 nM Insulin for 0, 5, 30, 60 min. Cell lysates were harvested for Western Blot, using anti-pIR (Tyr 1162/63) antibodies.
Mouse primary hepatocytes were isolated and cultured in DMEM medium with 0.5% FBS for 12 hours, and then were incubated with either vehicle DMSO, Compound 7 (100 nM), or Compound 8 (100 nM) for one hour. Phosphorylated IR, Gsk3β, and Foxo1 and the corresponding total proteins were analyzed by Western blots.
PTP-MEG2 inhibitor Compound 7 augments insulin signaling in cells. Given the excellent potency and selectivity of Compound 7 toward PTP-MEG2, we proceeded to evaluate its effect on PTP-MEG2-dependent signaling inside the cell. To assess the effects of Compound 7 on insulin signaling, we pretreated mouse primary hepatocytes with Compound 7 for 1 hour and then stimulated the cells with 5 nM insulin for 5 minutes. […] Remarkably, the phosphorylated form of IR was increased 50% and 100% at concentrations of 50 nM (1.5×Ki) and 100 nM of Compound 7, respectively (FIG. 4A and FIG. 8). […] Phosphorylation of Akt (Ser473) was increased by 3.1 and 4.5 fold; phosphorylation of GSK-3β (Ser9) was increased by 1.5 and 2.0 fold; and phosphorylation of Foxo1 (Ser253) was increased by 2.1 and 2.9 fold at 100 and 200 nM concentrations of Compound 7, respectively.
Western blot analysis. Cells were homogenized in the lysis buffer (50 mM Hepes, pH 7.5, 150 mM NaCl, 10% Glycerol, 1% Triton X-100, 1.5 mM MgCl2, 1 mM EGTA, 10 μM Sodium Pyrophosphate, 100 mM sodium fluoride and freshly added 100 μM sodium vanadate, 1 mM PMSF, 10 μg/ml Aprotinin, and 10 μg/mL Leupeptin). Protein extracts were resolved on an SDS-PAGE gel and transferred to nitrocellulose membrane. Proteins were probed using the following antibodies: IR(pY1162/63), IR (Santa Cruz Biotechnology), Akt(pS473), Aid, GSK3β(pS9), GSK3β, Foxo1(pS256), Foxo1, Erk1/2(pT202/Y204), Erk1/2 (Cell Signaling Technology). Protein signals were detected by incubation with HRP-conjugated secondary antibodies, followed by ECL detection reagent (Pierce). Western blots were scanned and quantified using the Quantity One software (Bio-Rad).

[3] = target: PTPH1 (Homo sapiens (Human), UniProt P26045); experiment: pNPP hydrolysis enzyme assay, PTPH1; format: biochemical
PTPH1, sequence (P26045 whole entry, species assumed): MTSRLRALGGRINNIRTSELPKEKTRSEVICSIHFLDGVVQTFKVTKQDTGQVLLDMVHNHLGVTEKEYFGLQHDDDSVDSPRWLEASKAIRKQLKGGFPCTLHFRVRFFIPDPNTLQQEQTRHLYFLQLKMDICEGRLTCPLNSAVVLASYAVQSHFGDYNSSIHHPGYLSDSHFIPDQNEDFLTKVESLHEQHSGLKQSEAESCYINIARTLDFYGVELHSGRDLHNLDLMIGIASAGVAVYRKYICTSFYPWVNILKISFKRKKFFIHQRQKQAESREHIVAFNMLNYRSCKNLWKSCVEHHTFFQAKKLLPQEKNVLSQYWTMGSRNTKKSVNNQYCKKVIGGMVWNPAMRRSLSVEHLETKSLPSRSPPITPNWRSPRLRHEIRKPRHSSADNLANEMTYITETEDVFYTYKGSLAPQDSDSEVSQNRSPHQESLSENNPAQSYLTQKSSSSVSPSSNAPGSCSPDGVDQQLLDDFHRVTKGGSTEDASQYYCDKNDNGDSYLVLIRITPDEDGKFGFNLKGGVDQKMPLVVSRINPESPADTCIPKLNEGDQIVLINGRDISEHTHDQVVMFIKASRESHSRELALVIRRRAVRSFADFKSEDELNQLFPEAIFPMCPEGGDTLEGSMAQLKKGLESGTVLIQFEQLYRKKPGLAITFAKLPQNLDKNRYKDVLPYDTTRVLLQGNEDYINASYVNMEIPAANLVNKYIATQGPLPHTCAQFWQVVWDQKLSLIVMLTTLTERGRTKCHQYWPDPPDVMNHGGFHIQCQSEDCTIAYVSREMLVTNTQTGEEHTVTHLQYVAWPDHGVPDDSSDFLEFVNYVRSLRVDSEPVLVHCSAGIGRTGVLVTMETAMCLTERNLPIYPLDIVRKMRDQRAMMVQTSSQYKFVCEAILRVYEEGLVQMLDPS
Protocol: as §1

[4] = target: VHX (Homo sapiens (Human), UniProt Q9NRW4); experiment: pNPP hydrolysis enzyme assay, VHX; format: biochemical
VHX, sequence (Q9NRW4 whole entry): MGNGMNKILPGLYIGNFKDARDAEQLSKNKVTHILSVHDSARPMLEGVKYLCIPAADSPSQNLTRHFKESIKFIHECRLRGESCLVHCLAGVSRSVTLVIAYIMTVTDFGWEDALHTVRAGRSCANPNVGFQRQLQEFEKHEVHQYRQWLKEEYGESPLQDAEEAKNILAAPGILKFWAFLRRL
Protocol: as §1

[5] = target: LYP (Homo sapiens (Human), UniProt Q9Y2R2); experiment: pNPP hydrolysis enzyme assay, LYP; format: biochemical
LYP, sequence (Q9Y2R2 whole entry, species assumed): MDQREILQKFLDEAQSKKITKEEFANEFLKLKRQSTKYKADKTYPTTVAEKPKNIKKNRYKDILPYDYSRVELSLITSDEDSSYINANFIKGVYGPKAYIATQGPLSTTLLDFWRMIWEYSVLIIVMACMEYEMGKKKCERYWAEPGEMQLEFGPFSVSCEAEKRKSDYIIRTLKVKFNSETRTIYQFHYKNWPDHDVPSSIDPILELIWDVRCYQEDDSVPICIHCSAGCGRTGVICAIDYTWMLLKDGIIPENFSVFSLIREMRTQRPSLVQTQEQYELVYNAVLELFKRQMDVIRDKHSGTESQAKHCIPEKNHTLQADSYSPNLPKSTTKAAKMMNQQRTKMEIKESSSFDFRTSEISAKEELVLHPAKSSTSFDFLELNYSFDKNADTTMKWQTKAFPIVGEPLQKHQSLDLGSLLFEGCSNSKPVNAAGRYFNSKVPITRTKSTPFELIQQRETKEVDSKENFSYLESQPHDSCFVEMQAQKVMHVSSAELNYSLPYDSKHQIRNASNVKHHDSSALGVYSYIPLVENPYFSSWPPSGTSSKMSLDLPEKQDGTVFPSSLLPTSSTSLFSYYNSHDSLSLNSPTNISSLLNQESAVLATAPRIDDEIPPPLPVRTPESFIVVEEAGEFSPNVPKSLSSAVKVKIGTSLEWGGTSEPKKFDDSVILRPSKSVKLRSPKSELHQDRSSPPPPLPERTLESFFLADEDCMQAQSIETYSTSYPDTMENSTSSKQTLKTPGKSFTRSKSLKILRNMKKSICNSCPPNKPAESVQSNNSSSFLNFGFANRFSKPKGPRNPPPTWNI
Protocol: as §1

[6] = test system: insulin signaling in metabolic tissues of diet-induced obese mice; experiment: Insulin signaling in liver, skeletal muscle and white adipose tissue of diet-induced obese mice (immunoblot); format: in vivo, mouse; conditions: skeletal muscle, white adipose tissue, 2-week injections, insulin bolus
Description: To investigate the underlying mechanisms responsible for the improved insulin sensitivity in Compound 7 treated diet-induced obese mice, we analyzed key insulin signaling events in metabolically active tissues. Phosphorylation of Tyr1162/1163 residues in IR was stimulated 2-3 fold higher in the liver, skeletal muscle, and white adipose tissue in Compound 7 treated mice than that in control mice (FIGS. 5G & H). […] These biochemical data are consistent with the animal phenotype that Compound 7 can effectively improve insulin sensitivity in diet-induced obese mice. Our finding that chemical inhibition of PTP-MEG2 augments insulin signaling, insulin sensitivity and glucose homeostasis in insulin resistant mice is consistent with the observation that silencing of PTP-MEG2 in the livers of db/db mice results in a reversal of insulin resistance and hyperglycemia (Cho, et al., Cell Metab. 2006, 3, 367-378). Moreover, our in vivo data also serve as proof-of-concept and support the notion that specific inhibitors of PTP-MEG2 may be effective anti-diabetes agents.

[7] = target: HePTP (Homo sapiens (Human), UniProt P35236); experiment: pNPP hydrolysis enzyme assay, HePTP; format: biochemical
HePTP, sequence (P35236 whole entry, species assumed): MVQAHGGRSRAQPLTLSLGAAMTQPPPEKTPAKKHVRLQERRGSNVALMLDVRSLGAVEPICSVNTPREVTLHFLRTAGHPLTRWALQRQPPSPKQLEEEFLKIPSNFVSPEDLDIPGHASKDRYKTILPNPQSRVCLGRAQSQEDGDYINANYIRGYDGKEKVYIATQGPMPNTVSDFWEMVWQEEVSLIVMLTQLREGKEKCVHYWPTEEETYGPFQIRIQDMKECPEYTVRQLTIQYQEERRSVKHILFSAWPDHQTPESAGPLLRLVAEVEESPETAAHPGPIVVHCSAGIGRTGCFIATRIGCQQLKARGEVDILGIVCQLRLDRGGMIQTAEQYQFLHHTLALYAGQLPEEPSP
Protocol: as §1

[8] = target: CD45 (Homo sapiens (Human), UniProt P08575); experiment: pNPP hydrolysis enzyme assay, CD45; format: biochemical
Protocol: as §1

[9] = target: SHP2 (Homo sapiens (Human), UniProt Q06124); experiment: pNPP hydrolysis enzyme assay, SHP2; format: biochemical
SHP2, sequence (Q06124 whole entry, species assumed): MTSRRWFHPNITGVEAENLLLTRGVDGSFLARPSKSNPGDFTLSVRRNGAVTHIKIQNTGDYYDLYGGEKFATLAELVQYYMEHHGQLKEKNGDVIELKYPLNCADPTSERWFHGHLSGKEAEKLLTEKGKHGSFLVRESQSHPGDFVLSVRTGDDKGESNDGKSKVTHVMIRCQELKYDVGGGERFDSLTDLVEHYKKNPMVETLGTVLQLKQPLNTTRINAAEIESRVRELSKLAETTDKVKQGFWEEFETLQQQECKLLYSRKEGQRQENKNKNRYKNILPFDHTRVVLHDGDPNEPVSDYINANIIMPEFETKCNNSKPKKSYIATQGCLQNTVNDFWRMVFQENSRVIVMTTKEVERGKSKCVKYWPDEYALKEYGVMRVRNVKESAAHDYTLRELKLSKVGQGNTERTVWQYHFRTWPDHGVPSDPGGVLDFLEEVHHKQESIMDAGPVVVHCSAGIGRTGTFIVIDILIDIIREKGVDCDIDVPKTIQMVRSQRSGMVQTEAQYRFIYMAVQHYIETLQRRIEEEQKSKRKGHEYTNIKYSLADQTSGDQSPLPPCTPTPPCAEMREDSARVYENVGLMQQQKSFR
Protocol: as §1

PTPβ, sequence (P23467 23-1997 limits assumed): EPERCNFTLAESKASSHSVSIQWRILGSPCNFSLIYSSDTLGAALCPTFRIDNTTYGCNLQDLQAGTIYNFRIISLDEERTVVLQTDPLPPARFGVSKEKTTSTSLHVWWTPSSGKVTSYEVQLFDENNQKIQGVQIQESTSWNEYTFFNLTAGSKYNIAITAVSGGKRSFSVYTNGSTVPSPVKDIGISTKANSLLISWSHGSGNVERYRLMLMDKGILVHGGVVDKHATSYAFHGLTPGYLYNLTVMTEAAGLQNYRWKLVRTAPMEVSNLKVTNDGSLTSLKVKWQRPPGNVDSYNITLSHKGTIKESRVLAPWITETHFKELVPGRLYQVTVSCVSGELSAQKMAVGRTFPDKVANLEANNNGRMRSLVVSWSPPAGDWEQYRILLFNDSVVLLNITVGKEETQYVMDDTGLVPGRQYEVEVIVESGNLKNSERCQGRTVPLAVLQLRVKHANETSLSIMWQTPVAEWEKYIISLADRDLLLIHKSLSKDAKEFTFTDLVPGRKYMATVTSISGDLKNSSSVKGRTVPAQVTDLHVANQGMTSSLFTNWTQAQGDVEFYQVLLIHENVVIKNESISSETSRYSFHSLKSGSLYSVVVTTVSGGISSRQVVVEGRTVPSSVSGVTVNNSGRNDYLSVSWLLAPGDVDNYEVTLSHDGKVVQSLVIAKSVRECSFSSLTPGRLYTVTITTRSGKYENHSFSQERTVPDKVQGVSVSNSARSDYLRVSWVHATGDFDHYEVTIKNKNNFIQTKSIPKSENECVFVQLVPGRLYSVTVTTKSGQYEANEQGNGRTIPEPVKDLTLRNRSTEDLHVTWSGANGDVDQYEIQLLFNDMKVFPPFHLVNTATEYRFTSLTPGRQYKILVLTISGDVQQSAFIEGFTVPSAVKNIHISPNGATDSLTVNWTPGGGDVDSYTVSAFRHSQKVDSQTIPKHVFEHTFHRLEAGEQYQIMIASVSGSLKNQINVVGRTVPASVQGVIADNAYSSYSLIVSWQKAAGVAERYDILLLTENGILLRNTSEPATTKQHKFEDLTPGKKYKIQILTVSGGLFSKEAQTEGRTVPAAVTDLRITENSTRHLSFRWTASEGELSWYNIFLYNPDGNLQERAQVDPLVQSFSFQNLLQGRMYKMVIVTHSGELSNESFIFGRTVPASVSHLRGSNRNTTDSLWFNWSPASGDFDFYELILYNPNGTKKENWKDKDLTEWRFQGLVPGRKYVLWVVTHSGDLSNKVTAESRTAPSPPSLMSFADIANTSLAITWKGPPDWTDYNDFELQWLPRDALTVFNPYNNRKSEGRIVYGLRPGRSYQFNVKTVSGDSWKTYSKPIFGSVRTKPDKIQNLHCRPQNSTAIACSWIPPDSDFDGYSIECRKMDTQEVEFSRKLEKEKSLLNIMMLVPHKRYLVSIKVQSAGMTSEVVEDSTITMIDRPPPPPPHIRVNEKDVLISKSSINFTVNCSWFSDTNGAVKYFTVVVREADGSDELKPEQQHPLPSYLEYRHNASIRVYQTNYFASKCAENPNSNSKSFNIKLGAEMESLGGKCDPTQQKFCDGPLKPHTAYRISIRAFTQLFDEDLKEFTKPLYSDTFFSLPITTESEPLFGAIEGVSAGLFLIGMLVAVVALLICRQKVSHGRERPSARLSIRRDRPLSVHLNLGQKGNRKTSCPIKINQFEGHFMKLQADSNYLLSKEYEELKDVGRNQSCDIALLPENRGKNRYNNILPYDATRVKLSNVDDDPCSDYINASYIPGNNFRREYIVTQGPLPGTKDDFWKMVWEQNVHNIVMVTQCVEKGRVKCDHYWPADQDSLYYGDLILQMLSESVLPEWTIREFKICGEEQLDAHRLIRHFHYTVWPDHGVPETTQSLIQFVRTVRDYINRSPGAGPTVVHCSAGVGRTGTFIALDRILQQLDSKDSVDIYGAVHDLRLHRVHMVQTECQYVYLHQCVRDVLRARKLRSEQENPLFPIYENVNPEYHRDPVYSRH

SMILES: COc1cc(CC(=O)NCC(NC(=O)C(CCCNC(=O)c2cccc(I)c2)NC(=O)C(Cc2ccc(C(F)(F)P(=O)(O)O)cc2)NC(=O)c2ccc(C)c(Br)c2)C(N)=O)ccc1O (centres unmarked) [Compound 7]
- IC50 [1]: > 10000 nM
- increase of phosphorylated IR (Tyr1162/1163) ([2]; 50 nM compound): 50%
- increase of Akt (Ser473) phosphorylation ([2]; 100 nM compound, 5 nM insulin): 3.1 fold
- increase of Foxo1 (Ser253) phosphorylation ([2]; 100 nM compound, 5 nM insulin): 2.1 fold
- increase of GSK-3β (Ser9) phosphorylation ([2]; 100 nM compound, 5 nM insulin): 1.5 fold
- increase of phosphorylated IR (Tyr1162/1163) ([2]; 100 nM compound): 100%
- insulin signaling pathway under basal conditions ([2]; 100 nM, one hour, no insulin): enhanced
- increase of Akt (Ser473) phosphorylation ([2]; 200 nM compound, 5 nM insulin): 4.5 fold
- increase of Foxo1 (Ser253) phosphorylation ([2]; 200 nM compound, 5 nM insulin): 2.9 fold
- increase of GSK-3β (Ser9) phosphorylation ([2]; 200 nM compound, 5 nM insulin): 2.0 fold
- Erk1/2 activation ([2]; insulin-stimulated hepatocytes): strongly enhanced
- increase of basal phosphorylation of Foxo1 ([2]; no insulin, 100 nM, 1 hour): 2.2 fold
- increase of basal phosphorylation of GSK-3β ([2]; no insulin, 100 nM, 1 hour): 2.0 fold
- increase of basal phosphorylation of IR ([2]; no insulin, 100 nM, 1 hour): 2.1 fold
- duration of potentiation of insulin stimulated IR phosphorylation ([2]; time course 0, 5, 30, 60 min, 5 nM insulin): at least 1 hour
- IC50 [3]: > 10000 nM
- IC50 [4]: > 10000 nM
- IC50 [5]: > 10000 nM
- increase of Akt (Ser473) phosphorylation [6]: 40-60%
- phosphorylation of Tyr1162/1163 in IR, higher than control mice [6]: 2-3 fold
- IC50 [7]: > 10000 nM
- IC50 [8]: > 10000 nM
- IC50 [9]: > 10000 nM

From US9340574B2, “Inhibitors of protein tyrosine phosphatases” (Indiana University Research and Technology Corporation, priority 2012, dated 2016)
